These results are taken from PubChem BioAssay (NCI).

Some test systems named below: RXF-631 renal; KM20L2 colon; M19-MEL melanoma; XF 498 CNS.
Common to all, as to experiment: DTP human tumour cell line panel, 48 h

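Test compounds were applied to cells in 96-well plates for 48 hours at 5 doses. TGI denotes the concentration required for complete inhibition of growth.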

For orientation: TGI means the concentration giving total growth inhibition. Higher therefore signals lower sensitivity of the cells. As for `Cc1ccc(NC(=O)C(=O)Cc2nc3ccccc3o2)c(C)c1`, the TGI in the experiment on RXF-631 renal, with KM20L2 colon, in the experiment with M19-MEL melanoma and in the experiment on XF 498 CNS was over 100 µM throughout.

With `CCOC(=O)C(C[Si](C)(C)C)P(=O)(OCC)OCC` (stereo not drawn), the TGI with RXF-631 renal, with KM20L2 colon, in the experiment with M19-MEL melanoma and in the experiment with XF 498 CNS was over 100 µM throughout.

On to `O=[N+]([O-])c1ccccc1C1N2CCCCC2[C@@H]2c3[nH]c4ccccc4c3CCN12` (stereo partly drawn), for which the TGI came to 32.8 µM with RXF-631 renal, 25.1 µM in the experiment with KM20L2 colon, 18.5 µM with M19-MEL melanoma and 30.6 µM in the experiment on XF 498 CNS.

`Cc1cc(C)c(C(=O)OC(c2ccccc2)C(c2ccccc2)N2CCOCC2)c(C)c1` (stereo not drawn): the TGI in the experiment with RXF-631 renal, in the experiment with KM20L2 colon, in the experiment with M19-MEL melanoma and with XF 498 CNS was over 100 µM in each case.

As for `CCC1(OC(C)=O)C(=O)OCc2c1cc1n(c2=O)Cc2cc3ccccc3nc2-1` (stereo not drawn), the TGI with RXF-631 renal, in the experiment with KM20L2 colon, in the experiment with M19-MEL melanoma and in the experiment on XF 498 CNS was over 100 µM each time.

For `COc1ccc(O)c2c1C(=O)CCCC2=O`, the concentration for total growth inhibition (TGI) in the experiment with RXF-631 renal, in the experiment with KM20L2 colon, with M19-MEL melanoma and with XF 498 CNS was over 100 µM throughout.

Regarding `Fc1ccccc1C1CC(C(c2ccccc2)c2ccccc2)=Nc2ccccc2S1` (stereo not drawn), the TGI with RXF-631 renal came to 27.2 µM; with KM20L2 colon, 27.6 µM; with XF 498 CNS, 27.1 µM.

On to `COc1cc2c(cc1C)n(O)c(C)c(C(=O)C/C(=N/NC(=O)C[N+](C)(C)C)C(=O)Nc1cccc(Cl)c1C)[n+]2=O`, for which the TGI in the experiment with RXF-631 renal, in the experiment with KM20L2 colon and with XF 498 CNS was over 100 µM each time.

Take `Cc1cc(C)nc(NS(=O)(=O)c2ccc(NC(=O)c3cccc4cc5ccccc5nc34)cc2)n1`: the TGI with RXF-631 renal is over 100 µM; with KM20L2 colon, over 100 µM; in the experiment on M19-MEL melanoma it was 79 µM; in the experiment on XF 498 CNS, 98.2 µM.

In the case of `COc1cccc(C2C(C(=O)Nc3cc(=O)n(C)c(=O)n3C)=C(C)NC(C)=C2C(=O)Nc2cc(=O)n(C)c(=O)n2C)c1O`, the TGI in the experiment with RXF-631 renal, with KM20L2 colon, in the experiment with M19-MEL melanoma and in the experiment on XF 498 CNS was over 100 µM throughout.
